Test results taken from US5371284A, “Phenyl acetylenic acetals” (Schering Corporation, priority 1993, dated 1994).

Test system: LTC4-induced contractions of guinea pig lung parenchyma
Assay: Inhibition of LTC4-induced contractions of guinea pig lung parenchyma strips
Set-up: species or system guinea pig (male Hartley)
Conditions: test compound at 10)M (so in the source); 1×10^-8 M LTC4, compound added 5 min before challenge; footnote c = statistically significant (p = 0.05), Student's t test
Method: The anti-allergy method of this invention is shown by tests which measure a compound's inhibition of contractile responses of strips of lung parenchyma. Male Hartley guinea pigs (600-800 g body weight) were killed by a blow to the head and then exsanguinated. The lungs were inflated with 5 ml. of air through the trachea, the chest cavity opened, and the lungs perfused in situ through the pulmonary artery with Tyrode's solution. The lower lobe of each lung was excised and dissected into four strips (3×10 mm), each of which was suspended in a constant temperature (37° C.) organ bath containing 10 mL of Tyrode's solution and aerated with 95% O2 -5% CO2. Each lung strip was attached to a Harvard isometric muscle transducer and tension was recorded with a Harvard recording module. The initial tension was adjusted to 2 g and the tissues allowed to equilibrate until a steady baseline was reached. […] The peak contractile response to LTC4 was recorded and expressed as a percent of the maximum response (obtained with 1×10^-4 M histamine) of that lung strip. The effect of each test compound is expressed as percent inhibition of the contractile response calculated as follows: [formula]

## CCCc1c(OCC(O)COc2ccc3c(=O)cc(C(=O)O)oc3c2CCC)ccc(C(C)=O)c1O (stereo not shown) [FPL 55712]
  % Inhibition of LTC4-induced contractions of guinea pig lung parenchyma: 99%
